In patent US9783576B2, “Compositions and methods for targeted endometriosis treatment” (Sanford-Burnham Medical Research Institute, priority 2013, dated 2017):
Entries after “also recorded” stand apart in the source; their conditions may differ. Read-outs that look alike come from different tables or passages of the source. Where no end group is shown, it is not given here. The star is where a group is joined. FITC = O=C1OC2(c3ccc(O)cc3Oc3cc(O)ccc32)c2ccc(NC(=S)*)cc21

Assays:
Ishikawa cells = experiment: Fluorescence microscopy binding to live cells; format: cell-based, human; details: for fluorescence/binding of Qdot-conjugated peptide on Ishikawa cells: 100 nM
Description: (§1) Ishikawa cells and A431 cells were grown on glass coverslips in 3.5 cm tissue culture plates. Each phage clone including z13 was added to these cells, incubated at 4° C. for 15 min, washed with cold PBS, and fixed with 1% paraformaldehyde (PFA) in PBS. Phage was detected using rabbit anti-T7 antibody and FITC-conjugated goat anti-rabbit IgG antibody. After washing three times with PBS, cells were fixed with 1% paraformaldehyde in PBS and inspected under a Zeiss Axioplan fluorescence microscope. Ishikawa cells grown on glass coverslips were incubated in medium containing FITC-z13 peptide (1 μg/ml) at 37° C. for 15 min. After washing with PBS, cells were fixed with 1% PFA in PBS, and inspected under the fluorescence microscope. Qdot-encapsulated and C16-z13 peptide coated liposomes were prepared as described above. Ishikawa cells were incubated with these liposomes at 37° C. for 15 min, washed with PBS, fixed with 1% PFA, and inspected under the fluorescence microscope. Qdot605-conjugated peptide, Qdot-cys-z13, or control peptide, Qdot-cys-m2, was added to the culture at 100 nM and left at 37° C. for 15 min.
(§2) Ishikawa cells and A431 cells were grown on glass coverslips in 3.5-cm tissue culture plates. Ishikawa cells grown on glass coverslips were incubated in medium containing FITC-z13 peptide (1 μg/ml) at 37° C. for 15 min. After washes with PBS, cells were fixed with 1% PFA in PBS and inspected under a fluorescence microscope. Qdot-cys-z13 was prepared by conjugating cys-z13 to Qdot nanoparticles (Qdot antibody conjugation kit, Quantum Dot, Hayward, Calif.) in accordance with the manufacturer's protocol. Cells were inspected under a Zeiss Axioplan fluorescence microscope.

A431 cells = experiment: Fluorescence microscopy binding to control cells; format: cell-based, human
Description: as §1, §2

CNGB3 [1] = target: T1, CNGB3 (Homo sapiens, UniProt Q9NQW8); experiment: FITC-z13 binding to HeLa cells transfected with CNGB3-MYC; format: cell-based; details: 5 μg/ml, 37° C. 15 min
T1 construct: tissue Folio Biosciences; Imgenex; host or cells: human endometriosis tissue sections, normal uterine endometrium and normal tissue microarrays, peritoneum
T1 sequence (Q9NQW8 1-809 C234W): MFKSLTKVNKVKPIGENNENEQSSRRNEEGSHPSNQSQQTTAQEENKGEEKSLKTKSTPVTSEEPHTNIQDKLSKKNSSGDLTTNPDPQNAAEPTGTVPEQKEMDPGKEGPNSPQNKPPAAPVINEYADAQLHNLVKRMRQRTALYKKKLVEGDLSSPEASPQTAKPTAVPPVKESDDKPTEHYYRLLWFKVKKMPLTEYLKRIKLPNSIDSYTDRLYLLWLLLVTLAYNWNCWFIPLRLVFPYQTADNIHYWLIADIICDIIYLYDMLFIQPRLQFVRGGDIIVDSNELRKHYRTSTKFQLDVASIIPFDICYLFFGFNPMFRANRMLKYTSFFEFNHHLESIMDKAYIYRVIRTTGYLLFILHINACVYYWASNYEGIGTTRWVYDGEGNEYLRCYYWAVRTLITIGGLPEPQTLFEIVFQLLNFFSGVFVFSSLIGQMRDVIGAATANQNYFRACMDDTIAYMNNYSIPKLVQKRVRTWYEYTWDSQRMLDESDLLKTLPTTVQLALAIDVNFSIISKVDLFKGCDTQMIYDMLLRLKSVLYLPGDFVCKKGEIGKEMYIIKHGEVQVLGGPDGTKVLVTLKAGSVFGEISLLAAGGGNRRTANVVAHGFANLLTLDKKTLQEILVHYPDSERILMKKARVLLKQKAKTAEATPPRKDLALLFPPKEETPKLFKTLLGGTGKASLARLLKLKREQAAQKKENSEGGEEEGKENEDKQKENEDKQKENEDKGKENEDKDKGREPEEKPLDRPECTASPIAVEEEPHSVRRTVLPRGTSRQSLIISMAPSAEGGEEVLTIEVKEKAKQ
Source text: (§3) To assess binding of FITC-z13 to CNGB3, HeLa cells were transfected with a mammalian expression vector encoding a CNGB3-MYC fusion protein or with control empty vector. Fluorescence micrographs were made of HeLa cells transfected by control vector or with an expression vector encoding CNGB3-MYC.
(§4) CNGB3 cDNA was kindly provided by Dr. Hisao Ueyama, Department of Ophthalomology, Shiga University of Medical Science, Japan. cDNA encoding full-length CNGB3 was excised by HindIII and BsrGI and ligated into the HindIII and Asp718I sites of pcDNA3.1/myc-His-B vector (Invitrogen). HeLa cells were transfected with this vector, and expression of CNGB3-MYC/His fusion protein was determined by immunohistochemistry with an anti-MYC antibody and the anti-CNGB3 antibody (clone 3B2) described above. To test binding of z13 peptide to CNGB3, FITC-z13 was added (5 μg/ml) to the medium of HeLa cells transfected by the above-described vector and incubated at 37° C. for 15 min. Cells were washed with PBS, fixed with 4% PFA in PBS, and observed under a fluorescence microscope.

CNGB3 [2] = target: T2, CNGB3 (Homo sapiens, UniProt Q9NQW8, C234W); experiment: as above; format: cell-based; details: control empty vector
T2 construct: tissue Folio Biosciences; Imgenex; host or cells: human endometriosis tissue sections, normal uterine endometrium and normal tissue microarrays, peritoneum
T2 sequence (Q9NQW8 1-809 C234W): T1 sequence (Q9NQW8 1-809 C234W)
Source text: as §3, §4

[3] = system: CNGB3-positive A431 cells; experiment: Cell viability assay measuring ATP with KLA-HLA hybrid z13 peptides; format: cell-based, human; details: 37° C. 6 hours, ATP by CellTiter Glo (FIG. 8)
Description: FIG. 8 is a graph of luminescence versus peptide concentration in μg/ml. […] Cells were cultured in medium containing each peptide at indicated concentrations at 37° C. for 6 hours. ATP levels were measured by CellTiter Glo (Promega).
(§5) The effect of these peptides was tested using CNGB3-positive A431 cells, which was generated by transfecting A431 cells with CNGB3-Myc gene driving lenti viral vector. […] The assays used detected no difference between these two peptides. The TUNEL assay was of CNGB3-MYC expressing A431 cells after culturing in medium containing KLA-HLA-z13 for 24 hours.

mammalian cell = details: not coupled to a targeting domain; cited from earlier work
[4] = system: CNGB3-MYC expressing A431 cells; experiment: TUNEL assay with KLA-HLA hybrid z13 peptides; format: cell-based, human; details: 24 hours in medium containing peptide
Description: as §5

[5] = system: CNGB3-Myc cDNA-transfected HEK293T cells; experiment: Apoptosis (TUNEL) of CNGB3-Myc transfected HEK293T cells; format: cell-based; details: peptide alone added to culture medium
Source text: (§6) It was realized that this lack of effect could be due to the fact that receptor-bound dKLAK-z13 localizes to the luminal side of endosomes, a prediction supported by the endosome-like pattern of fluorescent z13. To release dKLAK-z13 from the endosomes to the cytoplasm, an endosome-escaping 18-mer peptide HLAHLAHHLAHLAHHLAH (SEQ ID NO:38; here abbreviated as HLAH) was devised by replacing lysines in KLAKLAK (SEQ ID NO:39) with histidines, to provide histidine-rich sequences capable of destabilizing endosome membranes at acidic pH (Midoux et al., 2002; Pichon et al., 2001). […] For this experiment, biotin-z13 was bound to CNGB3-MYC expressing HEK293T cells at 37° C. for 30 min with or without HLAH-z13. Cells were stained by Alexa 488-conjugated avidin followed by DAPI nuclear staining.
Each peptide was dissolved in dimethylsulfoxide at 100 μg/μl. Each peptide was added to the medium of cells, and the cells were cultured at 37° C. for 20 hours. Apoptosis of CNGB3-Myc cDNA-transfected HEK293T cells was determined by TUNEL assay using the ApopTag immunoperoxidase kit (Chemicon, Temecula, Calif.).

[6] = system: CNGB3-expressing HEK293T cells; experiment: Cell viability assay (ATP, CellTiter Glo) in CNGB3-expressing cells; format: cell-based; details: 37° C. 1 hour, single peptide
Description: FIG. 5 is a graph of luminescence of live cells cultured in medium containing peptides on CNGB3-MYC expressing A431 cells versus peptide concentration for the four different peptide combinations: z13, dKLAK-z13, HLAH-z13, or dKLAK-z13 plus HLAH-z13. Cells were cultured in medium containing each peptide at the indicated concentrations at 37° C. for 1 hour. ATP levels were measured by CellTiter Glo (Promega). Lines represent, in order from top to bottom: z13, dKLAK-z13, HLAH-z13, and dKLAK-z13 plus HLAH-z13.
Cytotoxic activity of dKLAK-z13 was then assessed in the presence of HLAH-z13 using a cell viability assay (FIG. 5). When CNGB3-expressing HEK293T cells were cultured in medium containing z13, dKLAK-z13, or HLAH-z13 at 37° C. for 1 hour, cell viability was not affected except at high concentration of dKLAK-z13 (at 200 μg/ml) or HLAH-z13 (at 50 μg/ml). […] For this experiment, cells were cultured at 37° C. for 20 hours in medium containing no peptide; z13 (100 μg/ml); dKLAK (100 μg/ml); dKLAK-z13 (100 μg/ml); HLAH-z13 (25 μg/ml); or dKLAK-z13 (100 μg/ml) plus HLAH-z13 (25 μg/ml).

[7] = system: CNGB3-MYC expressing HEK293T cells; experiment: Endosome escape of biotin-z13 in CNGB3-MYC expressing HEK293T cells; format: cell-based; details: 37° C. 30 min
Source text: as §6

With “FITC-z13: synthetic fluorescence-tagged z13 peptide whose amino-terminus was conjugated ({FITC}-VRRADNRPG)” the “binding of FITC-tagged z13 peptide to Ishikawa cells” value (Ishikawa cells; 1 μg/ml, 37° C. 15 min) was “bound”, the “binding of FITC-tagged z13 peptide to A431 cells” value (A431 cells) was “did not show fluorescence” and the “binding of FITC-tagged z13 peptide to A431 cells” value (A431 cells; listed as z13 peptide with an N-terminal FITC-tag) was “not”. For the same substance, the “binding to CNGB3-MYC-expressing HeLa cells” value (CNGB3 [1]) was “bound to sites marked by MYC-epitope expression” and the “binding to vector-transfected control HeLa cells” value (CNGB3 [2]) was “did not bind”.
With “HLAHLAHHLAHLAHKLAKLAKKLAKLAKVRRADNRPG [HLA-KLA-z13]” the “apoptosis / loss of viability of CNGB3-positive A431 cells” value [3] was “induced apoptosis”.
For “(KLAKLAK)2 (KLAKLAKKLAKLAK) [mitochondriotoxic pro-apoptotic peptide (PAP)]”, the “mammalian cell cytotoxicity of the peptide by itself” value (mammalian cell) is given as “low mammalian cell cytotoxicity”.
With “KLAKLAKKLAKLAKHLAHLAHHLAHLAHVRRADNRPG [KLA-HLA-z13]” the “apoptosis / loss of viability of CNGB3-positive A431 cells” value [3] was “induced apoptosis” and the “frequency of TUNEL-positive cells” value [4] was “dose-dependent increase in the frequency of TUNEL-positive cells”.
With KLAKLAKKLAKLAKKLAKVRRADNRPG [dKLAK-z13] the “induction of apoptosis in CNGB3-expressing cells” value [5] was “apoptosis was not induced; also recorded: did not induce apoptosis” and the “high concentration at which cell viability was affected (otherwise not affected)” value [6] was 200 µg/mL.
In the case of “Qdot-cys-z13: synthetic cys-z13 peptide CVRRADNRPG conjugated to fluorescent nanocrystal Qdot605 (also: conjugated to Qdot605 nanocrystal)”, the “fluorescence/binding of Qdot-conjugated peptide on Ishikawa cells” value (Ishikawa cells; 37° C. 15 min) was “strong fluorescence”, the “fluorescence/binding of Qdot-conjugated peptide on Ishikawa cells” value (Ishikawa cells; 37° C. 15 min, listed as Qdot-z13) was “bound” and the “binding of Qdot-conjugated peptide to A431 cells” value (A431 cells) was “not”.
In the case of “HLAHLAHHLAHLAHHLAHVRRADNRPG (HLAHLAHHLAHLAHHLAHVRRAXNXPG; (23)..(23) Xaa can be any naturally occurring amino acid; (25)..(25) Xaa can be any naturally occurring amino acid) [HLAH-z13]”, the “endosome-escaping activity (release of biotin-z13 from endosomes to cytoplasm)” value [7] was “promotes endosome-escaping activity” and the “high concentration at which cell viability was affected (otherwise not affected)” value [6] was 50 µg/mL.
For VRRADNRPG [z13], the “cellular localization of z13 in Ishikawa cells” value (Ishikawa cells; punctuate cytoplasmic staining pattern in micrographs) was “internalized to endosomes” and the cell viability [6] was “not affected”.
